Assay results published in US8507550B2, “Treatment for altitudinal hypoxia” (AesRx LLC, priority 2010, dated 2013).

How the values were obtained:
human subject = assay: hypoxia induced by moderate exercise at elevated altitude in a human subject; assay type: in vivo; settings: 3,000 meters altitude, at rest 3 hours and after one hour bike; dosage giving P50 of 18 mm Hg; day 2 (treated) vs day 1
Procedure: A 90 kg person in good health is transported from low elevation (<100 meters above sea level) to an altitude of 3,000 meters above sea level and kept at rest there for 3 hours. At that point, the subject is tested for respiration rate, heart rate and extremity O2. The subject is then put on a stationary exercise bike and allowed to ride the bike at a cadence of 40 rpm for one hour. The subject is again tested for respiration rate, heart rate and extremity O2. Then the subject is transported back to low elevation. […] The subject is kept at rest there for 3 hours, then tested for respiration rate, heart rate and extremity O2. The subject is then put on a stationary exercise bike and allowed to ride the bike at a cadence of 40 rpm for one hour. The subject is again tested for respiration rate, heart rate and extremity O2. The data from the two days are then compared.

rats = settings: females; cited from earlier work
[1] = tested on: sickle cell disease mouse model; settings: Abdulmalik 2004; cited from earlier work
SCD Hb = settings: sickle cell disease mouse model; Abdulmalik 2004; cited from earlier work

For `O=Cc1ccc(CO)o1` [5-HMF, 5-hydroxymethyl-2-furfural], the “respiration rate, heart rate and extremity O2” value (human subject) is listed as “closer to normal on day 2 than on day 1”, the “acute oral LD50” value (rats) is listed as 2500 to 5000 mg/kg and the “in vivo protection against the lethal effects of hypoxia” value [1] is listed as “provides in vivo protection against the lethal effects of hypoxia”. The “P50 of SCD Hb” value (SCD Hb) was “lower P50 (left shift)”.
